Data from the supplement of paper PMC10307832.

Assays:
Assay in all cases: relative viability (nuclei count vs DMSO), 5 days (fraction); higher = more cells survive
[1] = system: NCI-H1915
Procedure, shortened: (§1)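 Relative viability divides the nuclei count in treated wells by that in vehicle wells. Lung cancer cell lines were seeded in 1536-well plates, dosed by pin tool the next day, and fixed and stained after 5 days in one step with final 0.05% Triton X-100, 1% formaldehyde and 1 ug/ml Hoechst. Dosing was a single drug or a fixed anchor-drug dose plus five library-drug doses (not always all listed) in √10 steps, and values are medians of duplicate plates imaged at 4×.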

[2] = system: NCI-H1993
Procedure, shortened: as §1

[3] = system: NCI-H2023
Procedure, shortened: as §1

[4] = system: NCI-H2085
Procedure, shortened: as §1

[5] = system: NCI-H2126
Procedure, shortened: as §1

[6] = system: NCI-H2347
Procedure, shortened: as §1

[7] = system: NCI-H650
Procedure, shortened: as §1

[8] = system: NCI-H838
Procedure, shortened: as §1

[9] = system: PC-14
Procedure, shortened: as §1

[10] = system: SW 1573
Procedure, shortened: as §1

[11] = system: UMC-11
Procedure, shortened: as §1

Cc1sc2c(c1C)C(c1ccc(Cl)cc1)=N[C@@H](CC(=O)OC(C)(C)C)c1nnc(C)n1-2 [JQ1] + Cc1cc(Nc2cc(N3CCN(C)CC3)nc(Sc3ccc(NC(=O)C4CC4)cc3)n2)n[nH]1 [Tozasertib] (partner 0.1 µM) showed a relative viability ([1]; first compound 0.04 µM) of 0.439, a relative viability ([1]; first compound 0.1265 µM) of 0.344 and a relative viability ([1]; first compound 0.4 µM) of 0.325. The relative viability ([1]; first compound 1.265 µM) was 0.218, the relative viability ([1]; first compound 4 µM) was 0.15 and the relative viability ([2]; first compound 0.04 µM) was 0.509. For the same compound, the relative viability ([2]; first compound 0.1265 µM) was 0.62, the relative viability ([2]; first compound 0.4 µM) was 0.513 and the relative viability ([2]; first compound 1.265 µM) was 0.424. For the same compound, the relative viability ([2]; first compound 4 µM) was 0.489, the relative viability ([3]; first compound 0.04 µM) was 0.354 and the relative viability ([3]; first compound 0.1265 µM) was 0.308. It also gave a relative viability ([3]; first compound 0.4 µM) of 0.186, a relative viability ([3]; first compound 1.265 µM) of 0.1 and a relative viability ([3]; first compound 4 µM) of 0.0918. It also gave a relative viability ([4]; first compound 0.04 µM) of 0.761, a relative viability ([4]; first compound 0.1265 µM) of 0.727 and a relative viability ([4]; first compound 0.4 µM) of 0.63. The relative viability ([4]; first compound 1.265 µM) was 0.414, the relative viability ([4]; first compound 4 µM) was 0.328 and the relative viability ([5]; first compound 0.04 µM) was 0.8. It also gave a relative viability ([5]; first compound 0.1265 µM) of 0.849, a relative viability ([5]; first compound 0.4 µM) of 0.607 and a relative viability ([5]; first compound 1.265 µM) of 0.419. For the same compound, the relative viability ([5]; first compound 4 µM) was 0.31, the relative viability ([6]; first compound 0.04 µM) was 0.539 and the relative viability ([6]; first compound 0.1265 µM) was 0.554. For the same compound, the relative viability ([6]; first compound 0.4 µM) was 0.489, the relative viability ([6]; first compound 1.265 µM) was 0.308 and the relative viability ([6]; first compound 4 µM) was 0.237. For the same compound, the relative viability ([7]; first compound 0.04 µM) was 0.657, the relative viability ([7]; first compound 0.1265 µM) was 0.541 and the relative viability ([7]; first compound 0.4 µM) was 0.368. It also gave a relative viability ([7]; first compound 1.265 µM) of 0.21, a relative viability ([7]; first compound 4 µM) of 0.177 and a relative viability ([8]; first compound 0.04 µM) of 0.26. For the same compound, the relative viability ([8]; first compound 0.1265 µM) was 0.221, the relative viability ([8]; first compound 0.4 µM) was 0.263 and the relative viability ([8]; first compound 1.265 µM) was 0.179. The relative viability ([8]; first compound 4 µM) was 0.134, the relative viability ([9]; first compound 0.04 µM) was 0.593 and the relative viability ([9]; first compound 0.1265 µM) was 0.385. For the same compound, the relative viability ([9]; first compound 0.4 µM) was 0.314, the relative viability ([9]; first compound 1.265 µM) was 0.125 and the relative viability ([9]; first compound 4 µM) was 0.0518. It also gave a relative viability ([10]; first compound 0.04 µM) of 0.182, a relative viability ([10]; first compound 0.1265 µM) of 0.137 and a relative viability ([10]; first compound 0.4 µM) of 0.181. For the same compound, the relative viability ([10]; first compound 1.265 µM) was 0.141, the relative viability ([10]; first compound 4 µM) was 0.16 and the relative viability ([11]; first compound 0.04 µM) was 0.214. For the same compound, the relative viability ([11]; first compound 0.1265 µM) was 0.192, the relative viability ([11]; first compound 0.4 µM) was 0.173 and the relative viability ([11]; first compound 1.265 µM) was 0.175. For the same compound, the relative viability ([11]; first compound 4 µM) was 0.162.
